Experimental data taken from ChEMBL document CHEMBL3124838, “Discovery of 6-aryl-azabenzimidazoles that inhibit the TBK1/IKK-ε kinases” (Bioorg Med Chem Lett, 2014).

Columns and labels:
[1] = biological target: T1, Inhibitor of nuclear factor kappa-B kinase subunit beta (Homo sapiens) (UniProt O14920); test: Inhibition of human IKKbeta assessed as residual activity at 1 uM relative to control
T1 sequence (whole entry): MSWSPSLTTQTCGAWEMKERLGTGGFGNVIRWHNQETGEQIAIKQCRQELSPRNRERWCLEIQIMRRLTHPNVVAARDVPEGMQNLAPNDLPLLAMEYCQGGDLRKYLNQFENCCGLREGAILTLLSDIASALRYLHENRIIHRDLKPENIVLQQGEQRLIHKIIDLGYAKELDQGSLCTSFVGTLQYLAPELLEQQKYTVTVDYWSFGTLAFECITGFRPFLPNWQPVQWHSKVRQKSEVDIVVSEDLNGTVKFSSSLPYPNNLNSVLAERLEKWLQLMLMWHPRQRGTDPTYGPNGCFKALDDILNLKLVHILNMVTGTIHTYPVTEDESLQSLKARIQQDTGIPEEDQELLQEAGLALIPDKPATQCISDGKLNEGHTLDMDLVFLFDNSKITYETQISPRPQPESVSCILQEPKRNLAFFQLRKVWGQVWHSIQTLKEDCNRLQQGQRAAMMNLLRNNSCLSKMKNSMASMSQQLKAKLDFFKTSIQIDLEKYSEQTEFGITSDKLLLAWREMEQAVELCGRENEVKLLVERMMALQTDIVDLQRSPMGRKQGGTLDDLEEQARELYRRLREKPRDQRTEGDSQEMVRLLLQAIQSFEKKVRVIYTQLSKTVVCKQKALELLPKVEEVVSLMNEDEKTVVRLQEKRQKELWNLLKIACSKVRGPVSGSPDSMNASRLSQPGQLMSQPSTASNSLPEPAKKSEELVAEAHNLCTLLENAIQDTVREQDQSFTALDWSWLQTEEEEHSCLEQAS

[2] = biological target: Tyrosine-protein kinase Lck (Homo sapiens) (UniProt P06239); test: Inhibition of human LCK assessed as residual activity at 1 uM relative to control
Chain of Tyrosine-protein kinase Lck (Homo sapiens) (P06239 2-509 limits assumed): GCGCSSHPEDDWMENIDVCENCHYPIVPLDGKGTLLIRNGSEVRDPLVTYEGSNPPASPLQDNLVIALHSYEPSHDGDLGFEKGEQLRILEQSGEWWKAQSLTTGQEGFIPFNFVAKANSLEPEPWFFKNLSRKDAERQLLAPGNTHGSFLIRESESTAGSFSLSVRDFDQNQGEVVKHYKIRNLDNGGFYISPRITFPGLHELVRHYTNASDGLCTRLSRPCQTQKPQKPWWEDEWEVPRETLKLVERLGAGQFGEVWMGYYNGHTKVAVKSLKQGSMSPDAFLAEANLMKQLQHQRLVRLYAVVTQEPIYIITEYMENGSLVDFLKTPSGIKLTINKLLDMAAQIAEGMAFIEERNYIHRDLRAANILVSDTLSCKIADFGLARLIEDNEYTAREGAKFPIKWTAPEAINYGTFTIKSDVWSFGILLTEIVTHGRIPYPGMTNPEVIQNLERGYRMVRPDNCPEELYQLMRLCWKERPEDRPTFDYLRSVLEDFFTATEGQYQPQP

[3] = biological target: MAP kinase-activated protein kinase 2 (Homo sapiens) (UniProt P49137); test: Inhibition of human MAPKAP-K2 assessed as residual activity at 1 uM relative to control
[4] = biological target: Ribosomal protein S6 kinase alpha-5 (Homo sapiens) (UniProt O75582); test: Inhibition of human MSK1 assessed as residual activity at 1 uM relative to control
Chain of Ribosomal protein S6 kinase alpha-5 (Homo sapiens) (O75582 whole entry, looked up): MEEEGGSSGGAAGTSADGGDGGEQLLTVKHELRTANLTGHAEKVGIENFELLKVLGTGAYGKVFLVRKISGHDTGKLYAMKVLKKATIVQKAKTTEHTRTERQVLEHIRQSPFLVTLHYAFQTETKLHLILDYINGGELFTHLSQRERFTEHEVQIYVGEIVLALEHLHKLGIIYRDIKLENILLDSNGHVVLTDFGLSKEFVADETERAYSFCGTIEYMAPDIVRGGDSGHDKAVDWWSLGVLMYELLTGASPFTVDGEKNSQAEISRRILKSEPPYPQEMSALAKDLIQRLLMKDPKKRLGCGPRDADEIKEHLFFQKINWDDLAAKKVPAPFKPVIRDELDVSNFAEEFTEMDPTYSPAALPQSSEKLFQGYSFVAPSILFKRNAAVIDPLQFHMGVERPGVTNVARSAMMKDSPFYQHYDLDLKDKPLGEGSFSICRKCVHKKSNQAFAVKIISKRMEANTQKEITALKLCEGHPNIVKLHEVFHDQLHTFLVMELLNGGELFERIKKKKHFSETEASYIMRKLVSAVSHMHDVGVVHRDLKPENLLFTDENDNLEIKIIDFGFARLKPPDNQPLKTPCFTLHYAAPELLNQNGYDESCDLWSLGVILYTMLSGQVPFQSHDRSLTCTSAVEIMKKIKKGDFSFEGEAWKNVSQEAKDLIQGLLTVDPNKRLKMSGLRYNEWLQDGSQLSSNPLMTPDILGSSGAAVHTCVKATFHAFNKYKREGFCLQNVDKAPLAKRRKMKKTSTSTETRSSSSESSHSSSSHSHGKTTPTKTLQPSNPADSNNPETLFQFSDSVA

[5] = biological target: Vascular endothelial growth factor receptor 2 (Homo sapiens) (UniProt P35968); test: Inhibition of human KDR assessed as residual activity at 1 uM relative to control
Chain of Vascular endothelial growth factor receptor 2 (Homo sapiens) (P35968 whole entry): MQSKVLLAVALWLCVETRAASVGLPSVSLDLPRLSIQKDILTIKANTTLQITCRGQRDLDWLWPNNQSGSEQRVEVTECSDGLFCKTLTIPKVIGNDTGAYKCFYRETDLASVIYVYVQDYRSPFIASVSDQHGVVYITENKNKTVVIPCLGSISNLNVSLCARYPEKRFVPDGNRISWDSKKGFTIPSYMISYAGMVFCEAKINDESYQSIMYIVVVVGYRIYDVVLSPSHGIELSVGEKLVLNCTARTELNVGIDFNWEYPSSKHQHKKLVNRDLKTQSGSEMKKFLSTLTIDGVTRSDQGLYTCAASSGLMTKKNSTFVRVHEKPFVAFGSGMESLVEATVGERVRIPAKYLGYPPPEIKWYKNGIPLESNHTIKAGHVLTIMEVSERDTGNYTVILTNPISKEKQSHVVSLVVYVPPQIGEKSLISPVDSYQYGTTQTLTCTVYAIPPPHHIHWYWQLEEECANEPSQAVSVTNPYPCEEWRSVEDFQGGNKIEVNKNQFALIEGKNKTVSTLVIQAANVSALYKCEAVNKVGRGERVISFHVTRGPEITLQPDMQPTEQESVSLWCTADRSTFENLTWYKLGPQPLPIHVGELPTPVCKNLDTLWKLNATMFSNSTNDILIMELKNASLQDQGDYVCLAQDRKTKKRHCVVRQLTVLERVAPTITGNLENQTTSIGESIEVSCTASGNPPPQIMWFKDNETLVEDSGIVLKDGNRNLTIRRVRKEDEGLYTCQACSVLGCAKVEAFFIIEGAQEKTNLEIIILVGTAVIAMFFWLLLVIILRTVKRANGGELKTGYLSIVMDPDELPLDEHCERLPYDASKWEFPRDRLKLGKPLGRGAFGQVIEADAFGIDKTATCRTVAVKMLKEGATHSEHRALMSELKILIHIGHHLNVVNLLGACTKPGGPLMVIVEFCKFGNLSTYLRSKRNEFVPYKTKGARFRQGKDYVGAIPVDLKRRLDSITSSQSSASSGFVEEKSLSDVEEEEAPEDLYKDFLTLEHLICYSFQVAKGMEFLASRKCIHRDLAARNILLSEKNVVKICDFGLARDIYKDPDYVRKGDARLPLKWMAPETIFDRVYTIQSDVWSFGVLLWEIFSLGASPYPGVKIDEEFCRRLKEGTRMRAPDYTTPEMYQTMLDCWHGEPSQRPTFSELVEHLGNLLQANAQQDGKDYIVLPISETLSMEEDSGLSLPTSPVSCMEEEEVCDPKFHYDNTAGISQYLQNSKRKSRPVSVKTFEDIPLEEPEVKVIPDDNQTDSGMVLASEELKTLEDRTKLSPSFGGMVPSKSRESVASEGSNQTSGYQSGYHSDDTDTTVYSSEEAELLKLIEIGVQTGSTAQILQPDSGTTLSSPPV

[6] = biological target: Tyrosine-protein kinase BTK (Homo sapiens) (UniProt Q06187); test: Inhibition of human BTK assessed as residual activity at 1 uM relative to control
Chain of Tyrosine-protein kinase BTK (Homo sapiens) (Q06187 whole entry): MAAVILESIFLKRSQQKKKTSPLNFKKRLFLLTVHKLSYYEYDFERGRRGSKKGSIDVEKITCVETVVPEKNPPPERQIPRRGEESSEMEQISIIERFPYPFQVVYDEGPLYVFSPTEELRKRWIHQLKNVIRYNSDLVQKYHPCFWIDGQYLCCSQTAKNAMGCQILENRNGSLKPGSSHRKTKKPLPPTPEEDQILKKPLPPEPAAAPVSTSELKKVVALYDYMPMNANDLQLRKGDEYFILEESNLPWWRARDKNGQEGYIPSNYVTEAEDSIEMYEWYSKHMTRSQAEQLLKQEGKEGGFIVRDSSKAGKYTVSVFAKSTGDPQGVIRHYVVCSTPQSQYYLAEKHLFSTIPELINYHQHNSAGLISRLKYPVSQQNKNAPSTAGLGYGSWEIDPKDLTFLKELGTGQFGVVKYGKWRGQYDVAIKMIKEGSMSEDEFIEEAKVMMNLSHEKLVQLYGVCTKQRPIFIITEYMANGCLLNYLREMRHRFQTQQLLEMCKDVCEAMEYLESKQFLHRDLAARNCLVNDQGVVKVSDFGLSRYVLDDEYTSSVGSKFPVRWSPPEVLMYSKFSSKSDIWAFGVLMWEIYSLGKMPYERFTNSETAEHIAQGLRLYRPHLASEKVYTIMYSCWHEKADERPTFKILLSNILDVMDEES

[7] = biological target: T2, Serine/threonine-protein kinase 17A (Homo sapiens) (UniProt Q9UEE5); test: Inhibition of human DRAK1 assessed as residual activity at 1 uM relative to control
T2 sequence (whole entry): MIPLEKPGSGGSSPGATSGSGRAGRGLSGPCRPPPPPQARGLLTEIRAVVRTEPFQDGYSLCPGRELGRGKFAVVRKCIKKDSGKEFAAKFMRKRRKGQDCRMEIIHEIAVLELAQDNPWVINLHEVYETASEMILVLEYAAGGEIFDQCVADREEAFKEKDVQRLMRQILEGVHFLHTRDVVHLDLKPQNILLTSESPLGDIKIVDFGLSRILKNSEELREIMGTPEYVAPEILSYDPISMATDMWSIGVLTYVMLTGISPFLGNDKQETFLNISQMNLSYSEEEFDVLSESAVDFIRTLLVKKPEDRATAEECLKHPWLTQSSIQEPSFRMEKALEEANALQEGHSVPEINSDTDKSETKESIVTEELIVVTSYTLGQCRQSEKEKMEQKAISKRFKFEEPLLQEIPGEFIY

[8] = biological target: Serine/threonine-protein kinase PAK 2 (Homo sapiens) (UniProt Q13177); test: Inhibition of human PAK2 assessed as residual activity at 1 uM relative to control
Chain of Serine/threonine-protein kinase PAK 2 (Homo sapiens) (Q13177 whole entry): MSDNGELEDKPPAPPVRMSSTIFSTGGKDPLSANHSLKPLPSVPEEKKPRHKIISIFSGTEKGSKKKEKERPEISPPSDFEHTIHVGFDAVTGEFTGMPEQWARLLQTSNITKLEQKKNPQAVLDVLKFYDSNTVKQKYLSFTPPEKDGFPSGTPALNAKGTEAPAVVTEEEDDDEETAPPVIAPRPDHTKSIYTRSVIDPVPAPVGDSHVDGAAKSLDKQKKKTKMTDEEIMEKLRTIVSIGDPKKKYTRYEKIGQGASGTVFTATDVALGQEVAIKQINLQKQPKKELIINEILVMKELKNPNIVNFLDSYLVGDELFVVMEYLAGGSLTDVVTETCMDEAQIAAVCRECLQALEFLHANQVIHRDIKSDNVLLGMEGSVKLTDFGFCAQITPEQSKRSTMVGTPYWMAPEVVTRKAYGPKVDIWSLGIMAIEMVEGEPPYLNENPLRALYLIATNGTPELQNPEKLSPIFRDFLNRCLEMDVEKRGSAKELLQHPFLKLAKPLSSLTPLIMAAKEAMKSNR

[9] = biological target: Tyrosine-protein kinase JAK2 (Homo sapiens) (UniProt O60674); test: Inhibition of human JAK2 assessed as residual activity at 1 uM relative to control
Chain of Tyrosine-protein kinase JAK2 (Homo sapiens) (O60674 whole entry): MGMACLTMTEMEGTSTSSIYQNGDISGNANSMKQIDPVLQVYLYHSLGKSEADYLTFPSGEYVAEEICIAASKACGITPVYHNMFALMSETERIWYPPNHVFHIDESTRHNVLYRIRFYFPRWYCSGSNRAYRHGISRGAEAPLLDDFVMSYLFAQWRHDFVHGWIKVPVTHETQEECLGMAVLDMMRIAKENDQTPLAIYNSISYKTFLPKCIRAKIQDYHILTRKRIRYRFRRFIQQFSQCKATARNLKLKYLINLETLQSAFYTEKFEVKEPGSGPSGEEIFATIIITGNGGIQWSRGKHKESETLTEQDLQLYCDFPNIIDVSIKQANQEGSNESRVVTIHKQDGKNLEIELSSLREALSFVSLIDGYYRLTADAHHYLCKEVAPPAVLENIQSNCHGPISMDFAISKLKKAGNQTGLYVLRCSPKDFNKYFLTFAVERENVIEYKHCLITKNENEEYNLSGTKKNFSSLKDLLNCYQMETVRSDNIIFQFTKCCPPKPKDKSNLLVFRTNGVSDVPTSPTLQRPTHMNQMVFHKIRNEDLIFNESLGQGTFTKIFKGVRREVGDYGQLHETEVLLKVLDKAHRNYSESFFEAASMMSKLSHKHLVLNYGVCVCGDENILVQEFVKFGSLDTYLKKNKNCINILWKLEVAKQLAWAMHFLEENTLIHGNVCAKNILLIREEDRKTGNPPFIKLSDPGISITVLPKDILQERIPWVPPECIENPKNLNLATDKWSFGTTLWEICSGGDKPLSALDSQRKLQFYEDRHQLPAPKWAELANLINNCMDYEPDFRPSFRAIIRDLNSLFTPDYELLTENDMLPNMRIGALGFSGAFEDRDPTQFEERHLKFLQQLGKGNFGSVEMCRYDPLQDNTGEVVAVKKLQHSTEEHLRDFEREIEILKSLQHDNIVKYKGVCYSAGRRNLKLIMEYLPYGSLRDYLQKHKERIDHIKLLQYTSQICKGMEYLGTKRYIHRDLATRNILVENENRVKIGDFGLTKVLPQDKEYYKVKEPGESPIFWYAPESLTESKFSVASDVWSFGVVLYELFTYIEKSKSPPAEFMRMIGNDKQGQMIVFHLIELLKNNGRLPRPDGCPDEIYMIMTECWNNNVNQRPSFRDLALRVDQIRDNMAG

| Activity [1] [%] | Activity [2] [%] | Activity [3] [%] | Activity [4] [%] | Activity [5] [%] | Activity [6] [%] | Activity [7] [%] | Activity [8] [%] | Activity [9] [%] | Structure (SMILES) |
| --- | --- | --- | --- | --- | --- | --- | --- | --- | --- |
| 95 | 44 | 101 | 100 | 14 | 112 | 4 | 90 | 108 | COc1ccc(-c2nc3cc(-c4csc(C(=O)NCC(C)C)c4)cnc3[nH]2)cc1 |
| 95 | 31 | 94 | 104 | 23 | 93 | 7 | 94 | 100 | COc1ccc(-c2nc3cc(-c4csc(C(=O)NCCC(C)C)c4)cnc3[nH]2)cc1 |
| 99 | 64 | 98 | 104 | 31 | 100 | 8 | 92 | 105 | COc1ccc(-c2nc3cc(-c4csc(C(=O)NCC(C)(C)C)c4)cnc3[nH]2)cc1 |
